Measurements taken from patent US20250145608A1, “KRAS DEGRADING COMPOUNDS COMPRISING ANNULATED 2-AMINO-3-CYANO THIOPHENES” (Boehringer Ingelheim Int'l GmbH Corp., priority 2021, published 2025).

Legend:
Assay type in all cases: cell-based
KRAS(G12D) = biological target: T1, KRAS(G12D) (Homo sapiens, UniProt P01116, G12D); assay: HiBit degradation assay in GP5d-HiBit-KRAS(G12D) cells (18 h; DC50, Dmax)
T1 construct: introduced immediately downstream of the initiating Methionine codon of the endogenous KRAS locus; host or cells: GP5d-HiBit-KRAS(G12D), a CRISPR knock-in at the endogenous locus
T1 sequence (P01116 1-188 isoform P01116-2 G12D): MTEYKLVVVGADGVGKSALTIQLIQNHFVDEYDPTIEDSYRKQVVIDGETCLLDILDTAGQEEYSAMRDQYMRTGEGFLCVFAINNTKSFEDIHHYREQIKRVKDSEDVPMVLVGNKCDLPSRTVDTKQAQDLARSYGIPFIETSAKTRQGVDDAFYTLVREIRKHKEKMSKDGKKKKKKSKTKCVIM
Procedure, shortened: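 GP5d cells carry an endogenous N-terminal HiBit tag on KRAS(G12D), knocked in by CRISPR. They were seeded overnight in DMEM/10% FCS, exposed to compound for 18 h at 37° C, then lysed for HiBit luminescence, normalised to DMSO. DC50 comes from a four-parameter logistic fit; Dmax is maximal degradation as % of control.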

SK—CO-1 cells = assay: SK-CO-1 CTG proliferation assay (120 h) (CRC, G12V); details: Homo sapiens, SK-CO-1 proliferation
Experimental: SK—CO-1 CTG Proliferation Assay (120 h) (CRC, G12V)
(§1) SK—CO-1 cells (ATCC HTB-39) are dispensed into 384-well plates, flat and clear bottom (Greiner, PNr. 781091) at a density of 500 cells per well in 60 μL EMEM (Sigma M5650)+10% Fetal Calf Serum (HyClone, PNr.: SH30084.03) and incubated at 37° C. in a CO2 incubator overnight. The next day, compounds (10 mM stock in DMSO) are added with the ECHO acoustic liquid handler system (Beckman Coulter), including DMSO controls. Plates are incubated for 120 h, and cell viability is measured using CellTiter-Glo luminescent cell viability reagent (Promega product code G7570). Viability (stated as percent of control) is defined as relative luminescence units RLU of each well divided by the RLU of cells in DMSO controls. IC50 values are determined from viability measurements by non-linear regression using a four-parameter model.

SAS cells = assay: SAS CTG proliferation assay (120 h) (HNSCC, wt amplified)
Experimental: SAS CTG Proliferation Assay (120 h) (HNSCC, Wt Amplified)
as §1, with “SAS” for “SK—CO-1”, “(JCRB0260)” for “(ATCC HTB-39)”, “300” for “500”, “DMEM:F12 (Gibco 31330-038)+10%” for “EMEM (Sigma M5650)+10%”

AsPC-1 cells = assay: AsPC-1 CTG proliferation assay (120 h) (pancreatic cancer, G12D); details: Homo sapiens, ASPC1, AsPC-1 proliferation
Experimental: AsPC-1 CTG Proliferation Assay (120 h) (Pancreatic Cancer, G12D)
The CTG assay is designed to measure quantitatively the proliferation of AsPC-1 cells (ATCC […]), using the CellTiter Glow Assay Kit (Promega G7571). Cells are grown in RPMI medium (ATCC) supplemented with Fetal Calf Serum (Life Technologies, Gibco BRL, Cat. No. 10270-106). On “day 0” 2000 AsPC-1 cells are seeded in 60 μL RPMI ATCC+10% FCS+ Penstrep in a 384-well plate, flat and clear bottom (Greiner, PNr. 781091). Cells are then incubated in the plates at 37° C. in a CO2 incubator overnight. On day 1, compounds (10 mM stock in DMSO) are added with the ECHO acoustic liquid handler system (Beckman Coulter), including DMSO controls. Plates are incubated for 120 h, and cell viability is measured using CellTiter-Glo luminescent cell viability reagent (Promega product code G7570). Viability (stated as percent of control) is defined as relative luminescence units RLU of each well divided by the RLU of cells in DMSO controls. IC50 values are determined from viability measurements by non-linear regression using a four-parameter model.

SW620 cells = assay: SW620 cell proliferation assay (colorectal cancer, G12V), 5 days; details: Homo sapiens, SW-620, 120 h
Procedure, shortened: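 SW620 cells (2000/well, DMEM with 10% FCS) exposed to a logarithmic compound dilution series for 5 days. Viability by CellTiter-Glo luminescence as percent of DMSO control; IC50 from a four-parameter logistic fit.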

SMILES | DC50 (KRAS(G12D)) | Dmax 18 h (KRAS(G12D)) | IC50 (SK—CO-1 cells) | IC50 (SAS cells) | IC50 (AsPC-1 cells) | IC50 (SW620 cells)
Cc1ncsc1-c1ccc([C@H](CO)NC(=O)[C@@H]2C[C@@H](O)CN2C(=O)[C@H](C(C)C)n2cc(OCCCC(C)N3CCCN(c4nccc(-c5noc([C@@]6(C)CCCc7sc(N)c(C#N)c76)n5)n4)[C@@H](C)C3)nn2)cc1 (stereo partly drawn) [I-30] | 1.4 nM | 94 % Ctrl | 29.7 nM | 15.2 nM | 69 nM | 18 nM
Cc1ncsc1-c1ccc([C@H](C)NC(=O)[C@@H]2C[C@@H](O)CN2C(=O)C(C(C)C)n2cc(OCCCCN3CCCN(c4nccc(-c5noc([C@@]6(C)CCCc7sc(N)c(C#N)c76)n5)n4)[C@@H](C)C3)nn2)cc1 (stereo partly drawn) [I-28] | 1.5 nM | 93 % Ctrl | 45 nM | 58.3 nM | 72 nM | 13.2 nM
Cc1ncsc1-c1ccc([C@@H](NC(=O)[C@@H]2C[C@@H](O)CN2C(=O)[C@H](C(C)C)n2cc(OCCCN3CCCN(c4nccc(-c5noc([C@@]6(C)CCCc7sc(N)c(C#N)c76)n5)n4)[C@@H](C)C3)nn2)[C@H](O)C(C)C)cc1 (single isomer, unassigned) [I-43] | 1.2 nM | 93 % Ctrl | 26.2 nM | 411 nM | 52.1 nM | 9.4 nM
Cc1ncsc1-c1ccc([C@H](CO)NC(=O)[C@@H]2C[C@@H](O)CN2C(=O)[C@H](C(C)C)n2cc(OC(C)CCCN3CCCN(c4nccc(-c5noc([C@@]6(C)CCCc7sc(N)c(C#N)c76)n5)n4)[C@@H](C)C3)nn2)cc1 (stereo partly drawn) [I-31] | 4.4 nM | 93 % Ctrl | 132 nM | 90 nM | 183 nM | 62.1 nM
Cc1ncsc1-c1ccc(CNC(=O)[C@@H]2C[C@@H](O)CN2C(=O)[C@@H](c2cc(OCCCN3CCCN(c4nccc(-c5noc([C@@]6(C)CCCc7sc(N)c(C#N)c76)n5)n4)[C@@H](C)C3)no2)C(C)C)cc1 (single isomer, unassigned) [I-25] | 2.3 nM | 94 % Ctrl | 57.3 nM | 17.8 nM | 93.4 nM | 9.88 nM
Cc1ncsc1-c1ccc([C@H](CCO)NC(=O)[C@@H]2C[C@@H](O)CN2C(=O)[C@H](C(C)C)n2cc(OCCCCN3CCCN(c4nccc(-c5noc([C@@]6(C)CCCc7sc(N)c(C#N)c76)n5)n4)[C@@H](C)C3)nn2)cc1 [I-38] | 3.3 nM | 93 % Ctrl | 117 nM | 58.1 nM | 128 nM | 28.4 nM
Cc1ncsc1-c1ccc([C@@H](NC(=O)[C@@H]2C[C@@H](O)CN2C(=O)[C@H](C(C)C)n2cc(OCCCCN3CCCN(c4nccc(-c5noc([C@@]6(C)CCCc7sc(N)c(C#N)c76)n5)n4)[C@@H](C)C3)nn2)[C@H](O)C(C)C)cc1 (single isomer, unassigned) [I-45] | 1.4 nM | 93 % Ctrl | 33.3 nM | 1810 nM | 51.4 nM | 14.5 nM
Cc1ncsc1-c1ccc(CNC(=O)[C@@H]2C[C@@H](O)CN2C(=O)[C@@H](c2cc(OCCCCN3CCCN(c4nccc(-c5noc([C@@]6(C)CCCc7sc(N)c(C#N)c76)n5)n4)[C@@H](C)C3)no2)C(C)C)cc1 (single isomer, unassigned) [I-27] | 2.9 nM | 93 % Ctrl | 51.7 nM | 94.6 nM | 144 nM | 14.9 nM
Cc1ncsc1-c1ccc(CNC(=O)[C@@H]2C[C@@H](O)CN2C(=O)C(c2cc(OCCCCN3CCCN(c4nccc(-c5cc([C@@]6(C)CCCc7sc(N)c(C#N)c76)on5)n4)[C@@H](C)C3)no2)C(C)C)cc1 (stereo partly drawn) [I-4] | 4.3 nM | 94 % Ctrl | 207 nM | 628 nM | 372 nM | 53.4 nM
Cc1ncsc1-c1ccc([C@@H](NC(=O)[C@@H]2C[C@@H](O)CN2C(=O)[C@H](C(C)C)n2cc(OCCCCN3CCCN(c4nccc(-c5noc([C@@]6(C)CCCc7sc(N)c(C#N)c76)n5)n4)[C@@H](C)C3)nn2)[C@H](C)O)cc1 (single isomer, unassigned) [I-41] | 1.6 nM | 94 % Ctrl | 22.6 nM | 30.3 nM | 42 nM | 10.5 nM
Cc1ncsc1-c1ccc([C@H](CO)NC(=O)[C@@H]2C[C@@H](O)CN2C(=O)[C@H](C(C)C)n2cc(OCCCCN3CCCN(c4nccc(-c5noc([C@@]6(C)CCCc7sc(N)c(C#N)c76)n5)n4)[C@@H](C)C3)nn2)cc1 [I-29] | 2 nM | 93 % Ctrl | 24.3 nM | 548 nM | 97.2 nM | 26.4 nM
Cc1ncsc1-c1ccc(CNC(=O)[C@@H]2C[C@@H](O)CN2C(=O)[C@H](c2cc(OCCCN3CCCN(c4nccc(-c5noc([C@@]6(C)CCCc7sc(N)c(C#N)c76)n5)n4)[C@@H](C)C3)no2)C(C)C)cc1 (single isomer, unassigned) [I-24] | 200 nM | 81 % Ctrl | 2220 nM | 1310 nM | 1800 nM | 802 nM
CC(C)C(C(=O)N1C[C@H](O)C[C@H]1C(=O)NCc1ccc(C#N)cc1)c1cc(OCCCCN2CCCN(c3nccc(-c4noc([C@@]5(C)CCCc6sc(N)c(C#N)c65)n4)n3)[C@@H](C)C2)no1 (stereo partly drawn) [I-16] | 3.9 nM | 91 % Ctrl | 184 nM | 29.7 nM | 169 nM | 37.1 nM
